Reference: patent US7544679B2 (Hoffman-La Roche Inc., priority 2007, dated 2009)
Converted amounts (≈) assume the structure as drawn. Like-named read-outs stand apart in the source and are kept apart here.

What was measured:
γ-secretase = biological target: T1, γ-secretase (Homo sapiens, UniProt P49768); experiment: in vitro assay of γ-secretase activity (HEK293 membrane fraction, recombinant APP substrate, Abeta ELISA); assay type: biochemical; conditions: for Comments: potency (and THESA solubility) of the present example compared with the corresponding example from WO 2005/023772
T1 construct: HEK293 membrane fraction as a source of γ-secretase
Description: Description of γ-secretase Assay
The activity of test compounds can be evaluated in assays which measure the proteolytic cleavage of suitable substrates by γ-secretase activity. These can be cellular assays where e.g., a substrate of the γ-secretase is fused in its cytoplasmic domain to a transcription factor. Cells are transfected with this fusion gene and a reporter gene, e.g., firefly luciferase, which expression is enhanced by the transcription factor. Cleavage of the fused substrate by γ-secretase will lead to expression of the reporter gene which can be monitored in appropriate assays. The γ-secretase activity can also be determined in cell-free in vitro assays where e.g., a cell lysate containing the γ-secretase complex is incubated with a suitable APP-derived substrate which is cleaved to the Abeta peptides. The amount of produced peptides can be determined with specific ELISA assays. Cell lines of neuronal origin secrete Abeta peptides which can be measured with the specific ELISA assay. Treatment with compounds which inhibit γ-secretase leads to a reduction of secreted Abeta thus providing a measure of inhibition.
The in vitro assay of γ-secretase activity uses a HEK293 membrane fraction as a source of γ-secretase and a recombinant APP substrate. Latter consist of the C-terminal 100 amino acids of human APP fused to a 6×Histidin tail for purification which is expressed in E.coli in a regulatable expression vector, e.g. pEt15. This recombinant protein corresponds to the truncated APP fragment which results after […] of the extracellular domain and which constitutes the γ-secretase substrate. The assay principle is described in Li Y M et al, PNAS 97(11), 6138-6143 (2000). Hek293 cells are mechanically disrupted and the microsomal fraction is isolated by differential centrifugation. The membranes are solubilized in detergent (0.25% CHAPSO) and incubated with the APP substrate. The Abeta peptides which are produced by γ-secretase cleavage of the substrate are detected by specific ELISA assays as described (Brockhaus M et al, Neuroreport 9(7), 1481-1486 (1998).

[1] = THESA assay for determination of the thermodynamic solubility; assay type: physicochemical; conditions: 22.5 °C, aqueous buffer, thermodynamic from solid, second figure of the cell
Method: In addition, the compounds of the present invention have been tested in a THESA assay for determination of the thermodynamic solubility.
Approximately 2 mg of each compound was added in excess to a 50 mM phosphate buffer, at room temperature (22.5±1° C.). Each sample was placed in a microanalysis tube, which was sonicated for 1 h and agitated for 2 h. All suspensions were left overnight. At the next day all pHs were measured with a pH-meter and the samples filtered with a micronic filterplate (MSGVN2250) to separate the solid material from the solution. Then, all solutions were analyzed by HPLC. The calibration line was established by different concentrations of the compound in DMSO. From this regression equation the solubility of the compound was determined.

[2] = 50 mM phosphate buffer, room temperature (22.5±1° C.), read-out: THESA (IC50/THESA, Example No. present appl.)
[3] = comparison compounds from WO 2005/023772, 50 mM phosphate buffer, room temperature, read-out: THESA (IC50/THESA, Corresponding Example from WO 2005/023772)

Structure (SMILES)	Comments (γ-secretase)	solubility thermodynamic [1, 2]	solubility thermodynamic [1, 3]	also measured
CC(O)(C(=O)NCC(F)(F)C(F)(F)F)C(=O)N[C@@H]1C(=O)N(CC(F)(F)F)c2ccccc2-c2ccccc21 (mixture of isomers) [Example 12a]	Higher potency	–	–	–
CCCC(O)(C(N)=O)C(=O)N(CCC(F)(F)F)[C@@H]1C(=O)Nc2ccccc2-c2ccccc21 (single isomer, unassigned) [Example 6g, (R or S)-2-Hydroxy-N-((S)-6-oxo-6,7-dihydro-5H-dibenzo[b,d]azepin-7-yl)-2-propyl-N-(3,3,3-trifluoro-propyl)-malonamide]	Higher potency	–	–	–
C[C@@](O)(C(=O)NCC(F)(F)C(F)(F)F)C(=O)N[C@@H]1C(=O)Nc2ccccc2-c2ccccc21 [Example 1b, (R)-2-Hydroxy-2-methyl-N-((S)-6-oxo-6,7-dihydro-5H-dibenzo[b,d]azepin-7-yl)-N′-(2,2,3,3,3-pentafluoro-propyl)-malonamide]	–	19 µg/mL (≈ 40.3 µM)	–	–
C[C@](O)(C(=O)NCC(F)(F)C(F)(F)F)C(=O)N[C@@H]1C(=O)Nc2ccccc2-c2ccccc21 [Example 1c, (S)-2-Hydroxy-2-methyl-N-((S)-6-oxo-6,7-dihydro-5H-dibenzo[b,d]azepin-7-yl)-N′-(2,2,3,3,3-pentafluoro-propyl)-malonamide]	–	14 µg/mL (≈ 29.7 µM)	–	–
C[C@](O)(C(=O)NCC(F)(F)F)C(=O)N[C@@H]1C(=O)N(CC(F)(F)F)c2ccccc2-c2ccccc21 [Example 13b, (S)-2-Hydroxy-2-methyl-N-[(S)-6-oxo-5-(2,2,2-trifluoro-ethyl)-6,7-dihydro-5H-dibenzo[b,d]azepin-7-yl]-N′-(2,2,2-trifluoro-ethyl)-malonamide]	Higher potency	14 µg/mL (≈ 27.8 µM)	–	–
C[C@](F)(C(=O)NCC(F)(F)C(F)(F)F)C(=O)N[C@H]1C(=O)Nc2ccccc2-c2ccccc21 [reference compound]	–	–	< 1 µg/mL	–
C[C@@](F)(C(=O)NCC(F)(F)C(F)(F)F)C(=O)N[C@H]1C(=O)Nc2ccccc2-c2ccccc21 [reference compound]	–	–	< 1 µg/mL	–
CC(C)(C(=O)NCC(F)(F)F)C(=O)N[C@H]1C(=O)Nc2ccccc2-c2ccccc21 [reference compound]	–	–	16 µg/mL (≈ 38.1 µM)	–
CCCC(C)(C(=O)NCCC(F)(F)F)C(=O)N[C@H]1C(=O)Nc2ccccc2-c2ccccc21 (stereo partly shown) [reference compound]	–	–	–	IC50 (IC50/THESA, Corresponding Example from WO 2005/023772) (γ-secretase; first figure of the cell, comparison compounds from WO 2005/023772): nearly inactive/—

The next lines start with results.

Comments (γ-secretase)	solubility thermodynamic [1, 2]	solubility thermodynamic [1, 3]	Structure (SMILES)	also measured
Higher potency	–	–	CCCC(O)(C(=O)NCCC(F)(F)F)C(=O)N[C@@H]1C(=O)Nc2ccccc2-c2ccccc21 (mixture of isomers) [Example 6a]	–
Higher potency, higher solubility	127 µg/mL (≈ 292 µM)	–	C[C@](O)(C(=O)NCCC(F)(F)F)C(=O)N[C@@H]1C(=O)Nc2ccccc2-c2ccccc21 [Example 2c, (S)-2-Hydroxy-2-methyl-N-((S)-6-oxo-6,7-dihydro-5H-dibenzo[b,d]azepin-7-yl)-N′-(3,3,3-trifluoro-propyl)-malonamide]	–
Higher potency, higher solubility	26 µg/mL (≈ 61.7 µM)	–	C[C@](O)(C(=O)NCC(F)(F)F)C(=O)N[C@@H]1C(=O)Nc2ccccc2-c2ccccc21 [Example 3b, (S)-2-Hydroxy-2-methyl-N-((S)-6-oxo-6,7-dihydro-5H-dibenzo[b,d]azepin-7-yl)-N′-(2,2,2-trifluoro-ethyl)-malonamide]	–
–	–	< 1 µg/mL	CC(C)(C(=O)NCCC(F)(F)F)C(=O)N[C@H]1C(=O)Nc2ccccc2-c2ccccc21 [reference compound]	–
